Source: ChEMBL document CHEMBL5036349, “Development of potent dual PDK1/AurA kinase inhibitors for cancer therapy: Lead-optimization, structural insights, and ADME-Tox profile” (Eur J Med Chem, 2021)

Legend:
Aurora kinase A = target: T1, Aurora kinase A (Homo sapiens, UniProt O14965); experiment: Inhibition of recombinant full length human His-tagged AURA expressed in Baculovirus expression system in presence of ATP measured by […]
T1 sequence (O14965 whole entry): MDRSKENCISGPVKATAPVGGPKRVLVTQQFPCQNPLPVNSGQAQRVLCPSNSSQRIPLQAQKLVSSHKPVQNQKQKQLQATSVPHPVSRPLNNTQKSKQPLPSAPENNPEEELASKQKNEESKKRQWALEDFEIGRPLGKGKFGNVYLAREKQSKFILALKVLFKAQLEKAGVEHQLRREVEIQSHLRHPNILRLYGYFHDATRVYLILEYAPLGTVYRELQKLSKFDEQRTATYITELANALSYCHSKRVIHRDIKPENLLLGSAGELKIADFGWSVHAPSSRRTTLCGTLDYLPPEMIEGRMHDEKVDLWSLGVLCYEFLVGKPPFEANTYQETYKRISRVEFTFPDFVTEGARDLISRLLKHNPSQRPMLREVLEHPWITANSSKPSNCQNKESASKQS

[1] = target: 3-phosphoinositide-dependent protein kinase 1 (Homo sapiens) (UniProt O15530); experiment: Inhibition of recombinant full length human His-tagged PDK1 expressed in Baculovirus expression system in presence of ATP measured by […]
NCI-H69 [2] = experiment: Cytotoxicity against human NCI-H69 cells at 30 uM assessed as cell proliferation rate measured after 72 hrs by MTT assay relative to control; assay type: functional
MCF7 = experiment: Cytotoxicity against human MCF7 cells measured after 72 hrs by MTT assay; assay type: functional, cell-based; details: MCF7, 72 h
CAKI-1 = experiment: Cytotoxicity against human CAKI-1 cells measured after 72 hrs by MTT assay; assay type: functional, cell-based; details: CAKI-1, 72 h
786-0 = experiment: Cytotoxicity against human 786-0 cells measured after 72 hrs by MTT assay; assay type: functional, cell-based; details: 786-0, 72 h
IGROV-1 = experiment: Cytotoxicity against human IGROV-1 cells measured after 72 hrs by MTT assay; assay type: functional, cell-based; details: IGROV-1, 72 h
PC-3 = experiment: Cytotoxicity against human PC-3 cells measured after 72 hrs by MTT assay; assay type: functional, cell-based; details: PC-3, 72 h
HCT-116 = experiment: Cytotoxicity against human HCT-116 cells measured after 72 hrs by MTT assay; assay type: functional, cell-based; details: HCT-116, 72 h
NCI-H69 [3] = experiment: Cytotoxicity against human NCI-H69 cells measured after 72 hrs by MTT assay; assay type: functional, cell-based; details: NCI-H69, 72 h
NCI-H82 = experiment: Cytotoxicity against human NCI-H82 cells measured after 72 hrs by MTT assay; assay type: functional, cell-based; details: NCI-H82, 72 h
Rec1 = experiment: Cytotoxicity against human REC1 cells measured after 72 hrs by MTT assay; assay type: functional, cell-based; details: Rec1, 72 h
TC-32 [4] = experiment: Cytotoxicity against human TC-32 cells measured after 72 hrs by MTT assay; assay type: functional, cell-based; details: TC-32, 72 h
SK-N-MC = experiment: Cytotoxicity against human SK-N-MC cells measured after 72 hrs by MTT assay; assay type: functional, cell-based
[5] = Cytotoxicity against human 6647 cells measured after 72 hrs by MTT assay; assay type: functional, cell-based; details: Homo sapiens, 6647, 72 h
[6] = Cytotoxicity against human TC71 cells measured after 72 hrs by MTT assay; assay type: functional, cell-based; details: TC-71, 72 h
A673 = experiment: Cytotoxicity against human A673 cells measured after 72 hrs by MTT assay; assay type: functional, cell-based; details: A673, 72 h
TC-32 [7] = experiment: Cytotoxicity against human TC-32 cells at 30 uM assessed as cell proliferation rate measured after 72 hrs by MTT assay relative to control; assay type: functional
HEK293 = experiment: Cytotoxicity against HEK293 cells at 10 uM measured after 24 to 48 hrs by Cell-titer glo assay relative to control; assay type: cell-based; details: human, hek293, 10 µM, time 24-48 hrs
[8] = Cytotoxicity against hTERT cells at 10 uM measured after 24 to 48 hrs by Cell-titer glo assay relative to control; assay type: cell-based; details: human, time 24-48 hrs
[9] = target: 3',5'-cyclic-AMP phosphodiesterase 4C (Homo sapiens) (UniProt Q08493); experiment: Inhibition of PDE4C1 (unknown origin) at 10 uM incubated for 60 mins followed by addition of binding agent and measured after 20 mins by Fluorescence Polarization assay relative to control; details: time 80.0 min
[10] = target: T2, NAD-dependent protein deacetylase sirtuin-7 (Homo sapiens) (UniProt Q9NRC8); experiment: Inhibition of human recombinant SIRT7 at 10 uM incubated for 20 mins followed by mixing and measure after 30 mins by Luminescence assay relative to control; details: time 50.0 min
T2 sequence (whole entry): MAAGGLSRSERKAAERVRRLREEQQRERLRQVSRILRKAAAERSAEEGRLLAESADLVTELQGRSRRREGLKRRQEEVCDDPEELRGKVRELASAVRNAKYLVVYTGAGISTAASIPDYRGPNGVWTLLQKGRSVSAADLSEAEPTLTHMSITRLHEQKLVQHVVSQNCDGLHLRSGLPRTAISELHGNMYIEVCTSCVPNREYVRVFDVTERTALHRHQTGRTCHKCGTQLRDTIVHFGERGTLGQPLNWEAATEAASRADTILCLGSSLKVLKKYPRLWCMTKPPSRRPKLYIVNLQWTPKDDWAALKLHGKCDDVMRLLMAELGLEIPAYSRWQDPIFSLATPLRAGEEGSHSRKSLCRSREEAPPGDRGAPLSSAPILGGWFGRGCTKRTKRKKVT

[11] = target: Aurora kinase B (Homo sapiens) (UniProt Q96GD4); experiment: Inhibition of Aurora B kinase (unknown origin) at 10 uM in presence of ATP incubated for 30 min followed by addition of kinase glo-reagent measured after 20 mins by Luminescence based plate reader assay relative to control; details: time 50.0 min
[12] = target: {'v': 'hERG (KCNH2)', 'o': 'p', 'q': 'Inhibition of human ERG at 10 uM'} (Homo sapiens, UniProt Q12809); experiment: Inhibition of human ERG at 10 uM relative to control
[13] = target: Histone deacetylase 4 (Homo sapiens) (UniProt P56524); experiment: Inhibition on human recombinant HDAC4 at 10 uM measured after 20 min by luminescence glo assay
[14] = target: T3, Protein deacetylase HDAC6 (Homo sapiens) (UniProt Q9UBN7); experiment: Inhibition on human recombinant HDAC6 at 10 uM measured after 20 min by luminescence glo assay
T3 sequence (whole entry): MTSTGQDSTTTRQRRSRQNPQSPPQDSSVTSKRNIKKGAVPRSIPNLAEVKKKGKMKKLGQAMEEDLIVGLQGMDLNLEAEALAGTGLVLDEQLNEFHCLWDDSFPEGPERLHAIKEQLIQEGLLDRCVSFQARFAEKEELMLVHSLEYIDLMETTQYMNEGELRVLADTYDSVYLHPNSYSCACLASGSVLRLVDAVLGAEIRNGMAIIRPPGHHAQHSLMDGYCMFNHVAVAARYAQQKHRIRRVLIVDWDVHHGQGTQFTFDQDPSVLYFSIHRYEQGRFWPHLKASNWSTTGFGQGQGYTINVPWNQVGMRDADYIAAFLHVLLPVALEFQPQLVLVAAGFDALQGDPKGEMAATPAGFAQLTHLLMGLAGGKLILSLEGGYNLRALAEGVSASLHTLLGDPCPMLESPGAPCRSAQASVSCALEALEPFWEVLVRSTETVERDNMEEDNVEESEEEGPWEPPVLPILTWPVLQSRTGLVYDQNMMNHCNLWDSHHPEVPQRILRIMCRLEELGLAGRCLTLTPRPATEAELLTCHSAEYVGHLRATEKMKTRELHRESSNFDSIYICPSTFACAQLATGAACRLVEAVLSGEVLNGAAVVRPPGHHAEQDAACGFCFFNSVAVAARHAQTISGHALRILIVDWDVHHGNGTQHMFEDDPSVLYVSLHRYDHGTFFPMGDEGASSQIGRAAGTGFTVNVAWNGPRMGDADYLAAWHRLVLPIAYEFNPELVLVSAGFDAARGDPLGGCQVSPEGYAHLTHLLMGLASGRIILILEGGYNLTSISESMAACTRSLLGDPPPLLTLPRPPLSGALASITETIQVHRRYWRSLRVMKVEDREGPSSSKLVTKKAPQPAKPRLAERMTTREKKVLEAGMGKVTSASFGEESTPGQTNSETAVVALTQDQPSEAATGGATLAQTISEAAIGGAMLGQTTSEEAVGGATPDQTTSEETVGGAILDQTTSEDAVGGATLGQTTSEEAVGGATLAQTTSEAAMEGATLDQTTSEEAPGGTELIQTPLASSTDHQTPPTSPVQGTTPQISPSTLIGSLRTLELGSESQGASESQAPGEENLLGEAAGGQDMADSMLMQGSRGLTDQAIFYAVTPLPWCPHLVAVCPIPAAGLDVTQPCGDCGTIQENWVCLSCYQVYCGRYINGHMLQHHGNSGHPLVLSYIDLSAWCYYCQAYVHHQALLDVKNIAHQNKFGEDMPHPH

[15] = target: T4, Histone deacetylase 8 (Homo sapiens) (UniProt Q9BY41); experiment: Inhibition on human recombinant HDAC8 at 10 uM measured after 20 min by luminescence glo assay
T4 sequence (whole entry): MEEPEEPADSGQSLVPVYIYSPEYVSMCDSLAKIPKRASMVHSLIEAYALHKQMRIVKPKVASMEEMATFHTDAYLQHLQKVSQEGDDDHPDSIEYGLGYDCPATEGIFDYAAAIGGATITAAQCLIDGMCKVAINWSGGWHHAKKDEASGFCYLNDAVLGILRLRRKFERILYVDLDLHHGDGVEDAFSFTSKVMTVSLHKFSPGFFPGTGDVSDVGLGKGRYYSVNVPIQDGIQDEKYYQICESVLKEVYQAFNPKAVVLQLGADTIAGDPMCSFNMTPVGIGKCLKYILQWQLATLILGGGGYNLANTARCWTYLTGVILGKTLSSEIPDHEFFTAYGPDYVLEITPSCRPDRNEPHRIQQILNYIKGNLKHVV

[16] = target: Histone deacetylase 9 (Homo sapiens) (UniProt Q9UKV0); experiment: Inhibition on human recombinant HDAC9 at 10 uM measured after 20 min by luminescence glo assay
Chain of Histone deacetylase 9 (Homo sapiens) (Q9UKV0 whole entry): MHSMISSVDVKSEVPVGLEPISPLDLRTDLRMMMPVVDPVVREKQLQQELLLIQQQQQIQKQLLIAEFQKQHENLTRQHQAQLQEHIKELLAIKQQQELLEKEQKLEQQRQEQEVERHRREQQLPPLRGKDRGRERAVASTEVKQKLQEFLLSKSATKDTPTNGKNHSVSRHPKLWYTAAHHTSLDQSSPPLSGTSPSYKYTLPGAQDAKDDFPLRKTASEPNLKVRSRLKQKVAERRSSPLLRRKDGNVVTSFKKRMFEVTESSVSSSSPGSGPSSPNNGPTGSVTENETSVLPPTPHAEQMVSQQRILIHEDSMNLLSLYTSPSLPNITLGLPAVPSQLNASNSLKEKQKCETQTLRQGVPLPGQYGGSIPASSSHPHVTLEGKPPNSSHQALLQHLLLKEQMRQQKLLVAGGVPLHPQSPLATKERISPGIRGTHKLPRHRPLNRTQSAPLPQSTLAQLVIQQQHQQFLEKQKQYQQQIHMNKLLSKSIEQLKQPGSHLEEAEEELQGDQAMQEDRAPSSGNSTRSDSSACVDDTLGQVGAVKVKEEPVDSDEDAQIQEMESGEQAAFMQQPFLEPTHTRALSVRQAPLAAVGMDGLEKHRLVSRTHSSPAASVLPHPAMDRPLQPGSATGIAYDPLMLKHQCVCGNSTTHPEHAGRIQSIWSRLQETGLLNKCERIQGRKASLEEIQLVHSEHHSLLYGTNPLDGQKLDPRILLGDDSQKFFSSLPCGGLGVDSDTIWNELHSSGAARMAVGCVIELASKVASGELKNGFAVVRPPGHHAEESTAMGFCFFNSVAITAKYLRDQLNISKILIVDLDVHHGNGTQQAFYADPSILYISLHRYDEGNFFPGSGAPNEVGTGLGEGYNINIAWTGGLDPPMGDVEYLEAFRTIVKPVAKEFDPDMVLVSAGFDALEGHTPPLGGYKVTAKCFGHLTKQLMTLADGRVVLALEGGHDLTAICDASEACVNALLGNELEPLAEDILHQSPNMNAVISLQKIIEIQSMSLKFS

Chain of Aurora kinase B (Homo sapiens) (Q96GD4 whole entry): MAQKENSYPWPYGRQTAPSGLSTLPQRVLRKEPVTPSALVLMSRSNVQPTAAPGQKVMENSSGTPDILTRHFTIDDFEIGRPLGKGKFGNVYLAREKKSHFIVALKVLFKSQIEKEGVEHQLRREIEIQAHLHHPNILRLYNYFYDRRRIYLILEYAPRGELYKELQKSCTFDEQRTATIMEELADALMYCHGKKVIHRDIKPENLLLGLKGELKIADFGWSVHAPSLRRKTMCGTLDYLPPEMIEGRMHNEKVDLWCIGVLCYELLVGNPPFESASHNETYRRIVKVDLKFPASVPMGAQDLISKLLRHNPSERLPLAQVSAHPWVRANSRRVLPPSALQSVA
Chain of 3',5'-cyclic-AMP phosphodiesterase 4C (Homo sapiens) (Q08493 whole entry): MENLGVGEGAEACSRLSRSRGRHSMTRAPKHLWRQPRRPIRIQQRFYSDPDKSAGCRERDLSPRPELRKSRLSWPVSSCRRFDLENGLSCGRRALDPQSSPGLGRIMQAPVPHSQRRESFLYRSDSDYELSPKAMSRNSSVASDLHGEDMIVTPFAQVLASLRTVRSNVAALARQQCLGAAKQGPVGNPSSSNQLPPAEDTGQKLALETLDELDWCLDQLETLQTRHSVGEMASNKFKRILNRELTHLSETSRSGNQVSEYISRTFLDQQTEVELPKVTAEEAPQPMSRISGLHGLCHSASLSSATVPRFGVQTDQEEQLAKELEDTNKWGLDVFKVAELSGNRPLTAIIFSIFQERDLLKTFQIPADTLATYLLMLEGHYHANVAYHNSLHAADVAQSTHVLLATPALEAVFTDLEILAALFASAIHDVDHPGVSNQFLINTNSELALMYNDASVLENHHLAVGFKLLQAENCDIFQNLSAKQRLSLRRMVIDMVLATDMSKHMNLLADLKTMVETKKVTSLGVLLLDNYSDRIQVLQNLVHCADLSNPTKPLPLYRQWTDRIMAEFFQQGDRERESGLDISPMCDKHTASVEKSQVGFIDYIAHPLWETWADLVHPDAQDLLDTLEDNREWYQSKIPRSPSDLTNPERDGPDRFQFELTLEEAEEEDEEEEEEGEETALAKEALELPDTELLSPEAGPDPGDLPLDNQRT
Chain of Histone deacetylase 4 (Homo sapiens) (P56524 whole entry): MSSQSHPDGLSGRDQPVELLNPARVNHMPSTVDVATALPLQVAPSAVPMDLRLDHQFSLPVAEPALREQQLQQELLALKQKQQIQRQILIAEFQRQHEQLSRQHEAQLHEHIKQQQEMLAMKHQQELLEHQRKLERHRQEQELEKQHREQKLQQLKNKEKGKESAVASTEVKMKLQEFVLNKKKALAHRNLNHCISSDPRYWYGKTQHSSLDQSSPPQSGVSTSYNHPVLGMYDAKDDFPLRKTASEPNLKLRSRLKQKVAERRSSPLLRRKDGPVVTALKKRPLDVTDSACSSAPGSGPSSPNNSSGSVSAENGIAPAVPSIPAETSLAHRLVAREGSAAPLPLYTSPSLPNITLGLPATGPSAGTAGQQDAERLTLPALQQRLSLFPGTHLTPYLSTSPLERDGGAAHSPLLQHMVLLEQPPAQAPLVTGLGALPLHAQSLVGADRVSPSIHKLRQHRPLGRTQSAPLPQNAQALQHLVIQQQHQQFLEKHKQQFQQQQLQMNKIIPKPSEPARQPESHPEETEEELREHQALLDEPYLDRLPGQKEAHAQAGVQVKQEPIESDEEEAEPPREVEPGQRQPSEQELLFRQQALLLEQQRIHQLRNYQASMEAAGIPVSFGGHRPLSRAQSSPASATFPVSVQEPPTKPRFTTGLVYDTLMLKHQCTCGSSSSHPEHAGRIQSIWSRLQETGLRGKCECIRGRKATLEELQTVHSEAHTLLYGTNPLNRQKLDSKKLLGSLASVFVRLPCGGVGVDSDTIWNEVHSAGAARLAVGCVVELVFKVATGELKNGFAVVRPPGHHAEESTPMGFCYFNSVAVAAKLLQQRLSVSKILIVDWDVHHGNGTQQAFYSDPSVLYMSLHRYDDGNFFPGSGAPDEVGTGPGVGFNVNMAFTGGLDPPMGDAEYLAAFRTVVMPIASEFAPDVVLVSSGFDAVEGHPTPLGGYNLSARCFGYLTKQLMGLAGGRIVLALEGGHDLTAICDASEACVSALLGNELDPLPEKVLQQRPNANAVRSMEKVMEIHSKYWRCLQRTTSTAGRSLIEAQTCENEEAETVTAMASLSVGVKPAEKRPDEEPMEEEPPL
Chain of {'v': 'hERG (KCNH2)', 'o': 'p', 'q': 'Inhibition of human ERG at 10 uM'} (Q12809 whole entry): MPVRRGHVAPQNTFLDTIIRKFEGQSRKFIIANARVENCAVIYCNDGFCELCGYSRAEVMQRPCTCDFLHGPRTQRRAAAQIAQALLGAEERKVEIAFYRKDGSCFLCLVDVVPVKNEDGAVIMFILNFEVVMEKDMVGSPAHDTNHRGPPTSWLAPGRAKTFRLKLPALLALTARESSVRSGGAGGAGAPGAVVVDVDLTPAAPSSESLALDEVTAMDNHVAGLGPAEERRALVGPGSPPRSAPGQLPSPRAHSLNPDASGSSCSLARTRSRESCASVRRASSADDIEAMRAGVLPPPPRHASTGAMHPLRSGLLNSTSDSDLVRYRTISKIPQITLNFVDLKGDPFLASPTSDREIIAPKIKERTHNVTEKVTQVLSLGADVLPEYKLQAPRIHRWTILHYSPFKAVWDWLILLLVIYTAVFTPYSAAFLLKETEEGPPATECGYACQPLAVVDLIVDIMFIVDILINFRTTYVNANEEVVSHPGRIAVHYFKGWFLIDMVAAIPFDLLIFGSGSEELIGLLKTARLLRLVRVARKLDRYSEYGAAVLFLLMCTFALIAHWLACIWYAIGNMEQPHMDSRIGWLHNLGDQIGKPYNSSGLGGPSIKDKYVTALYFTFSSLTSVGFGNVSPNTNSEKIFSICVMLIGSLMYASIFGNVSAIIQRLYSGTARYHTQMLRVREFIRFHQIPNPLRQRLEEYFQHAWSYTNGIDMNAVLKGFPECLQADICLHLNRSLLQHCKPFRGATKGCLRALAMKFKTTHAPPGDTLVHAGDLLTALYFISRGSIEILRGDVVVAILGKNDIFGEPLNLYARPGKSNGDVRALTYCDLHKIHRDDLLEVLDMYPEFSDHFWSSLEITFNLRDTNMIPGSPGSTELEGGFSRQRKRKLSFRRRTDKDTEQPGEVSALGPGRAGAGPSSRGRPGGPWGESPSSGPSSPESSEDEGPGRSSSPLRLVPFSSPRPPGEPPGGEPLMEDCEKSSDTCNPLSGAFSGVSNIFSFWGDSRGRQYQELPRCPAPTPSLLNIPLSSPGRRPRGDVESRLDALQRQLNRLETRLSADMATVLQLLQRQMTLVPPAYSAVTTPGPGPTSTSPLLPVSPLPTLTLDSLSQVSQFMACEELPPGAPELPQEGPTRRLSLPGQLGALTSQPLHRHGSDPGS

## O=C(CCNC(=O)c1cccn(Cc2ccc(F)c(F)c2)c1=O)Nc1ccc2c(c1)/C(=C/c1ncc[nH]1)C(=O)N2
Aurora kinase A
  IC50: Not Active

## CN1CCN(CC(=O)c2c[nH]c3ccc(NC(=O)[C@H](NC(=O)c4cccn(Cc5ccc(F)c(F)c5)c4=O)c4ccccc4)cc23)CC1
Aurora kinase A
  IC50: Not Active
[1]
  IC50: Not Active

## O=C(N[C@@H](COc1ccc2[nH]c(=O)[nH]c2c1)c1ccccc1)c1cccn(Cc2ccc(F)c(F)c2)c1=O
NCI-H69 [2]
  Emax at 30 µM: 80%
MCF7
  IC50: > 30 µM
CAKI-1
  IC50: > 30 µM
786-0
  IC50: > 30 µM
IGROV-1
  IC50: > 30 µM
PC-3
  IC50: > 30 µM
HCT-116
  IC50: > 30 µM
NCI-H69 [3]
  IC50: 13.9 µM
NCI-H82
  IC50: > 30 µM
Rec1
  IC50: > 30 µM
TC-32 [4]
  IC50: 13.9 µM
SK-N-MC
  IC50: > 30 µM
[5]
  IC50: > 30 µM
[6]
  IC50: > 30 µM
A673
  IC50: > 30 µM
TC-32 [7]
  Emax at 30 µM: 80%

## CCN(C)CC(=O)c1c[nH]c2ccc(NC(=O)[C@H](NC(=O)c3cccn(Cc4ccc(F)c(F)c4)c3=O)c3ccccc3)cc12
Aurora kinase A
  IC50: Not Active
[1]
  IC50: Not Active

## O=C(CCCNC(=O)c1cccn(Cc2ccc(F)c(F)c2)c1=O)Nc1ccc2c(c1)/C(=C/c1cnc[nH]1)C(=O)N2
HEK293
  Activity: < 25%
[8]
  Activity: < 25%
[9]
  inhibition: < 30%
[10]
  inhibition: < 30%
[11]
  inhibition: < 20%
[12]
  inhibition at 10 µM: 53%
[13]
  inhibition: < 30%
[14]
  inhibition: < 30%
[15]
  inhibition: < 30%
[16]
  inhibition: < 30%

## O=C(CCNC(=O)c1cccn(Cc2ccc(F)c(F)c2)c1=O)Nc1ccc2c(c1)/C(=C\c1ccc(F)cc1)C(=O)N2
Aurora kinase A
  IC50: Not Active
[1]
  IC50: Not Active

## O=C1Nc2ccc(NC(=O)c3cccc(NC(=O)c4cccn(Cc5ccc(F)c(F)c5)c4=O)c3)cc2C1=Cc1cccs1
Aurora kinase A
  IC50: Not Active
[1]
  IC50: Not Active

## Cc1c(Br)cc(C(=O)NCC(=O)Nc2ccc3c(c2)/C(=C/c2cnc[nH]2)C(=O)N3)c(=O)n1Cc1ccc(F)c(F)c1
HEK293
  Activity: < 25%
[8]
  Activity: < 25%
Aurora kinase A; read-out: IC50
  IC50: > 10 µM
[9]
  inhibition: < 30%
[10]
  inhibition: < 30%
[11]
  inhibition: < 20%
[13]
  inhibition: < 30%
[14]
  inhibition: < 30%
[15]
  inhibition: < 30%
[16]
  inhibition: < 30%

## O=C(CCNC(=O)c1cccn(Cc2ccc(F)c(F)c2)c1=O)Nc1ccc2c(c1)C(=Cc1cccs1)C(=O)N2
Aurora kinase A
  IC50: Not Active

## O=C1Nc2ccc(NC(=O)c3cccc(NC(=O)c4cccn(Cc5ccc(F)c(F)c5)c4=O)c3)cc2/C1=C/c1cnc[nH]1
HEK293
  Activity: < 25%
[8]
  Activity: < 25%
Aurora kinase A; read-out: IC50
  IC50: > 10 µM
[9]
  inhibition: < 30%
[10]
  inhibition: < 30%
[11]
  inhibition: < 20%
[13]
  inhibition: < 30%
[14]
  inhibition: < 30%
[15]
  inhibition: < 30%
[16]
  inhibition: < 30%

## O=C(CCCNC(=O)c1cccn(Cc2ccc(F)c(F)c2)c1=O)Nc1ccc2c(c1)C(=Cc1cccs1)C(=O)N2
Aurora kinase A
  IC50: Not Active
